In brackets after ≈: the same amount, converted by molar mass. Like-named read-outs stand apart in the source and are kept apart here.
Experiments:
Type in all cases: cell-based
[1] = test system: P. aeruginosa SR24; assay: MIC by broth microdilution (CLSI), P. aeruginosa SR24; settings: Pseudomonas aeruginosa
Description: (§1) Measurement of a minimum growth inhibition concentration (MIC: μg/mL) was performed according to CLSI (Clinical and Laboratory Standards Institute) method, by broth microdilution method, using an inoculation microbe amount of 10000 cfu/well and cation-adjusted Mueller Hinton broth containing human-derived 20 μM apo-transferrin as a test medium.

[2] = test system: A. baumannii SR24396; assay: MIC by broth microdilution (CLSI), A. baumannii SR24396; settings: Acinetobacter baumannii, 10000 cfu/well, cation-adjusted Mueller Hinton broth with 20 μM human apo-transferrin, read-out: minimum growth inhibition concentration (MIC)
Description: as §1

[3] = test system: P. aeruginosa SR27001(MDRP, IMP-1+); assay: MIC by broth microdilution (CLSI), P. aeruginosa SR27001; settings: Pseudomonas aeruginosa, read-out: minimum growth inhibition concentration (MIC)
Description: as §1

[4] = test system: E. coli ATCC BAA-196_TEM-10; assay: MIC by broth microdilution (CLSI), E. coli ATCC BAA-196; settings: Escherichia coli
Description: as §1

[5] = test system: K. pneumoniae ATCC 700603_SHV18; assay: MIC by broth microdilution (CLSI), K. pneumoniae ATCC 700603; settings: Klebsiella pneumoniae
Description: as §1

[6] = test system: P. aeruginosa SR27060(metallo); assay: MIC by broth microdilution (CLSI), P. aeruginosa SR27060; settings: Pseudomonas aeruginosa; P. aeruginosa SR27060, IMP-1, MBL producing carbapenem-resistant strain; 10000 cfu/well; cation-adjusted Mueller Hinton broth with 20 μM human apo-transferrin; read-out: minimum growth inhibition concentration (MIC)
Description: as §1

[7] = P. aeruginosa SR24, Ceftazidime-sensitive strain, 10000 cfu/well, cation-adjusted Mueller Hinton broth with 20 μM human apo-transferrin, read-out: minimum growth inhibition concentration (MIC)
[8] = P. aeruginosa SR27001, MDRP, IMP-1, MBL producing carbapenem-resistant strain, 10000 cfu/well, cation-adjusted Mueller Hinton broth with 20 μM human apo-transferrin
[9] = ATCCBAA196, E. coli ATCC BAA-196, TEM-10, ESBL producing strain, 10000 cfu/well, cation-adjusted Mueller Hinton broth with 20 μM human apo-transferrin, read-out: minimum growth inhibition concentration (MIC)
[10] = ATCC700603, K. pneumoniae ATCC 700603, SHV-18, ESBL producing strain, 10000 cfu/well, cation-adjusted Mueller Hinton broth with 20 μM human apo-transferrin, read-out: minimum growth inhibition concentration (MIC)
[11] = SR24, read-out: minimum growth inhibition concentration (MIC)
[12] = ATCCBAA196, read-out: minimum growth inhibition concentration (MIC)
[13] = ATCC700603, read-out: minimum growth inhibition concentration (MIC)

| SMILES | MIC [1, 7] [µg/mL] | MIC [2] [µg/mL] | MIC [3, 8] [µg/mL] | MIC [4, 9] [µg/mL] | MIC [5, 10] [µg/mL] | MIC [6] [µg/mL] | MIC [1, 11] [µg/mL] | MIC [3] [µg/mL] | MIC [4, 12] [µg/mL] | MIC [5, 13] [µg/mL] |
| --- | --- | --- | --- | --- | --- | --- | --- | --- | --- | --- |
| C[N+]1(CC2=C(C(=O)[O-])N3C(=O)[C@@H](NC(=O)/C(=N\OC[C@H](NC(=O)c4ccc(O)c(O)c4Cl)C(=O)O)c4csc(N)n4)[C@H]3SC2)[C@@H]2CC[C@H]1C[C@@H](N)C2 (stereo partly drawn) [Compound I-1] | 0.125 (≈ 0.16 µM) | ≤ 0.031 | 0.5 (≈ 0.642 µM) | 0.25 (≈ 0.321 µM) | 2 (≈ 2.57 µM) | 0.25 (≈ 0.321 µM) |  |  |  |  |
| NCC[N+]1(CC2=C(C(=O)[O-])N3C(=O)[C@@H](NC(=O)/C(=N\OC[C@H](NC(=O)c4ccc(O)c(O)c4Cl)C(=O)O)c4csc(N)n4)[C@H]3SC2)CCCC1 [Compound I-2] | 0.125 (≈ 0.166 µM) | 0.063 (≈ 0.0836 µM) | 0.25 (≈ 0.332 µM) | 0.25 (≈ 0.332 µM) | 4 (≈ 5.31 µM) | 0.125 (≈ 0.166 µM) |  |  |  |  |
| Nc1nc(/C(=N/OC[C@H](NC(=O)c2ccc(O)c(O)c2Cl)C(=O)[O-])C(=O)N[C@@H]2C(=O)N3C(C(=O)[O-])=C(C[n+]4cccc5c4CCC5)CS[C@H]23)cs1.[Na+] [Compound I-3] | 0.25 | 0.125 | 4 | 1 |  | 1 |  |  |  |  |
| CC1(C)CCc2ccc[n+](CC3=C(C(=O)[O-])N4C(=O)[C@@H](NC(=O)/C(=N\OC[C@H](NC(=O)c5ccc(O)c(O)c5Cl)C(=O)[O-])c5csc(N)n5)[C@H]4SC3)c21.[Na+] [Compound I-4] | 0.125 |  |  | 0.5 |  |  |  |  |  |  |
| Nc1nc(/C(=N/OC[C@H](NC(=O)c2ccc(O)c(O)c2Cl)C(=O)[O-])C(=O)N[C@@H]2C(=O)N3C(C(=O)[O-])=C(Cn4ccc(=O)c(O)c4)CS[C@H]23)cs1.[Na+].[Na+] [Compound I-5] |  | ≤ 0.031 |  | 8 |  |  |  |  |  |  |
| C[N+]1(CC2=C(C(=O)[O-])N3C(=O)[C@@H](NC(=O)/C(=N\OC(CNC(=O)c4ccc(O)c(O)c4Cl)C(=O)[O-])c4csc(N)n4)[C@H]3SC2)[C@@H]2CCC[C@H]1CC2.[Na+] (stereo partly drawn) [Compound I-10] |  |  |  |  |  |  | 0.25 | 2 | 1 | 0.5 |
| C[N+]1(CC2=C(C(=O)[O-])N3C(=O)[C@@H](NC(=O)/C(=N\O[C@@H](CNC(=O)c4ccc(O)c(O)c4Cl)C(=O)[O-])c4csc(N)n4)[C@H]3SC2)CC2CCCC2C1.[Na+] (stereo partly drawn) [Compound I-11] | 0.25 |  | 4 | 1 | 4 |  |  |  |  |  |
| Nc1nc(/C(=N/O[C@@H](CNC(=O)c2ccc(O)c(O)c2Cl)C(=O)[O-])C(=O)N[C@@H]2C(=O)N3C(C(=O)[O-])=C(C[N+]45CCC(CNC(=O)CC[C@H](N)C(=O)O)(CC4)CC5)CS[C@H]23)cs1.[Na+] [Compound I-12] | 0.25 |  | 4 | 2 | 1 |  |  |  |  |  |
| CC1(C)CCc2ccc[n+](CC3=C(C(=O)[O-])N4C(=O)[C@@H](NC(=O)/C(=N\O[C@@H](CNC(=O)c5ccc(O)c(O)c5Cl)C(=O)[O-])c5csc(N)n5)[C@H]4SC3)c21.[Na+] [Compound I-14] | 0.5 |  |  | 0.5 | 1 |  |  |  |  |  |
| Nc1nc(/C(=N/OC(CNC(=O)c2ccc(O)c(O)c2Cl)C(=O)[O-])C(=O)N[C@@H]2C(=O)N3C(C(=O)[O-])=C(C[N+]45CCC(CC4)CC5)CS[C@H]23)c(Cl)s1.[Na+] (stereo partly drawn) [Compound I-15] | 0.25 |  | 4 | 1 | 1 |  |  |  |  |  |
| NCC[N+]1(CC2=C(C(=O)[O-])N3C(=O)[C@@H](NC(=O)/C(=N\OC(CNC(=O)c4ccc(O)c(O)c4Cl)C(=O)O)c4nc(N)sc4Cl)[C@H]3SC2)CCCC1 (stereo partly drawn) [Compound I-16] | 0.25 (≈ 0.317 µM) |  | 2 (≈ 2.54 µM) | 0.125 (≈ 0.159 µM) | 1 (≈ 1.27 µM) |  |  |  |  |  |
| Nc1nc(/C(=N/OC(CNC(=O)c2ccc(O)c(O)c2Cl)C(=O)[O-])C(=O)N[C@@H]2C(=O)N3C(C(=O)[O-])=C(C[N+]45CCC(CC4)CC5)CS[C@H]23)ns1.[Na+] (stereo partly drawn) [Compound I-17] | 0.25 |  |  | 4 | 8 |  |  |  |  |  |
| NCC[N+]1(CC2=C(C(=O)[O-])N3C(=O)[C@@H](NC(=O)/C(=N\OCc4ccc(O)c(O)c4C(=O)O)c4csc(N)n4)[C@H]3SC2)CCCC1 [Compound I-19] | 0.5 (≈ 0.756 µM) |  |  | 8 (≈ 12.1 µM) |  |  |  |  |  |  |
| CC(C)(O/N=C(\C(=O)N[C@@H]1C(=O)N2C(C(=O)[O-])=C(C[N@+]3(C)[C@@H]4CC[C@H]3C[C@@H](N)C4)CS[C@H]12)c1ccc(O)c(O)c1Cl)C(=O)O [Compound I-20] |  |  |  | 2 (≈ 3.07 µM) |  | 4 (≈ 6.13 µM) |  |  |  |  |
| Nc1nc(/C(=N/OC(CNC(=O)c2ccc(O)c(O)c2Cl)C(=O)[O-])C(=O)N[C@@H]2C(=O)N3C(C(=O)[O-])=C(C[N+]45CCCC4CCC5)CS[C@H]23)cs1.[Na+] (stereo partly drawn) [Compound I-24] | 0.5 |  | 16 | 1 | 0.5 |  |  |  |  |  |
| Nc1nc(/C(=N/OC(CNC(=O)c2ccc(O)c(O)c2Cl)C(=O)[O-])C(=O)N[C@@H]2C(=O)N3C(C(=O)[O-])=C(C[N+]4(CCNC(=O)CC[C@H](N)C(=O)O)CCCC4)CS[C@H]23)cs1.[Na+] (stereo partly drawn) [Compound I-25] | 0.5 |  | 4 | 2 | 1 |  |  |  |  |  |
| C[N+]1(CC2=C(C(=O)[O-])N3C(=O)[C@@H](NC(=O)/C(=N\OC(CNC(=O)c4ccc(O)c(O)c4Cl)C(=O)[O-])c4csc(N)n4)[C@H]3SC2)[C@@H]2CC[C@H]1C[C@@H](NC(=O)CC[C@H](N)C(=O)O)C2.[Na+] (stereo partly drawn) [Compound I-26] |  |  |  |  |  |  | 1 | 4 | 1 | 1 |
| Nc1nc(/C(=N/OC(CNC(=O)c2ccc(O)c(O)c2Cl)C(=O)[O-])C(=O)N[C@@H]2C(=O)N3C(C(=O)[O-])=C(C[N+]4(CCNC(=O)C[C@@H](N)CC(=O)O)CCCC4)CS[C@H]23)cs1.[Na+] (stereo partly drawn) [Compound I-27] | 0.25 |  | 4 | 2 | 0.5 |  |  |  |  |  |
| Nc1nc(/C(=N/OC(CNC(=O)c2ccc(O)c(O)c2Cl)C(=O)[O-])C(=O)N[C@@H]2C(=O)N3C(C(=O)[O-])=C(C[N+]45CCCC4CCC5)CS[C@H]23)c(Cl)s1.[Na+] (stereo partly drawn) [Compound I-28] | 0.25 |  | 8 | 0.5 | 1 |  |  |  |  |  |
| Nc1nc(/C(=N/OC(CNC(=O)c2ccc(O)c(O)c2Cl)C(=O)[O-])C(=O)N[C@@H]2C(=O)N3C(C(=O)[O-])=C(C[N+]4(CCNC(=O)CC[C@H](N)C(=O)O)CCCC4)CS[C@H]23)c(Cl)s1.[Na+] (stereo partly drawn) [Compound I-29] | 0.5 |  | 2 | 0.5 | 1 |  |  |  |  |  |
| Nc1nc(/C(=N/OC(CNC(=O)c2ccc(O)c(O)c2Cl)C(=O)[O-])C(=O)N[C@@H]2C(=O)N3C(C(=O)[O-])=C(C[N+]4(CCNC(=O)C[C@@H](N)CC(=O)O)CCCC4)CS[C@H]23)c(Cl)s1.[Na+] (stereo partly drawn) [Compound I-30] | 0.25 |  | 8 | 0.5 | 2 |  |  |  |  |  |
| NCC[N+]1(CC2=C(C(=O)[O-])N3C(=O)[C@@H](NC(=O)/C(=N\OC(C[C@H](NC(=O)c4ccc(O)c(O)c4Cl)C(=O)[O-])C(=O)O)c4csc(N)n4)[C@H]3SC2)CCCC1.[Na+] (stereo partly drawn) [Compound I-31] | 0.5 |  | 1 | 0.25 | 0.25 |  |  |  |  |  |
| Nc1nc(/C(=N/OC(C[C@H](NC(=O)c2ccc(O)c(O)c2Cl)C(=O)[O-])C(=O)[O-])C(=O)N[C@@H]2C(=O)N3C(C(=O)[O-])=C(C[N+]4(CCNC(=O)CC[C@H](N)C(=O)O)CCCC4)CS[C@H]23)cs1.[Na+].[Na+] (stereo partly drawn) [Compound I-32] | 0.25 |  | 2 | 0.5 | 1 |  |  |  |  |  |

Source: patent publication US9290515B2, “Cephem derivative having catechol group” (SHIONOGI & CO., LTD., priority 2011, dated 2016)
